Test results: ChEMBL document CHEMBL1201862, “PubChem BioAssay data set” (2004)
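Briefly, cells in 96-well plates were exposed to five compound concentrations for 48 h, and endpoints were estimated by linear interpolation. Abbreviation: GI50, concentration required for 50% inhibition of growth.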 Activity calls are given as the source filed them. Rule as the data show it: active = GI50 up to about 1.1 µM and inactive = higher.

Experiments:
Assay in all cases: NCI anticancer screen, dose series, 48 h
[1] = system: 786-0
[2] = system: A549
[3] = system: ACHN
[4] = system: BT-549
[5] = system: COLO 205
[6] = system: HL-60
[7] = system: Hs-578T
[8] = system: MDA-MB-231
[9] = system: MDA-N
[10] = system: Malme-3M
[11] = system: NCI-H226
[12] = system: NCI-H23
[13] = system: OVCAR-5
[14] = system: OVCAR-8
[15] = system: RXF 393
[16] = system: SF-295
[17] = system: SF-539
[18] = system: TK-10
[19] = system: UACC-257
[20] = system: UO-31

SMILES | GI50 [1] | GI50 [2] | GI50 [3] | GI50 [4] | GI50 [5] | GI50 [6] | GI50 [7] | GI50 [8] | GI50 [9] | GI50 [10] | GI50 [11] | GI50 [12] | GI50 [13] | GI50 [14] | GI50 [15] | GI50 [16] | GI50 [17] | GI50 [18] | GI50 [19] | GI50 [20]
Nc1nc(N)c(N=Nc2ccc([As](=O)(O)O)c(O)c2)c(N)n1 | 20 µM (inactive) | > 82.4 µM (inactive) | 49 µM (inactive) | 32.4 µM (inactive) | 22 µM (inactive) | 2.96 µM (inactive) | 13 µM (inactive) | > 54.2 µM (inactive) | 0.839 µM (active) | 79.1 µM (inactive) | > 100 µM (inactive) | 7.57 µM (inactive) | > 100 µM (inactive) | 13.7 µM (inactive) | 7.48 µM (inactive) | 33.7 µM (inactive) | 17.1 µM (inactive) | 16.8 µM (inactive) | 91.6 µM (inactive) | > 88.9 µM (inactive)
O=c1[nH]c2ccccc2c(=O)c2cc3ccccc3cc12 | 6.58 µM (inactive) | 31.3 µM (inactive) | 33.7 µM (inactive) | 15.7 µM (inactive) | 88.7 µM (inactive) | 40 µM (inactive) | 8.81 µM (inactive) | 6.35 µM (inactive) | > 100 µM (inactive) | 45.6 µM (inactive) | 16.7 µM (inactive) | 19.1 µM (inactive) | > 100 µM (inactive) | 10 µM (inactive) | 18 µM (inactive) | 18.6 µM (inactive) | 20.9 µM (inactive) | 15.7 µM (inactive) | > 100 µM (inactive) | 35.3 µM (inactive)
Cn1c(=O)c(C(=O)Nc2nc(C34CC5CC(CC(C5)C3)C4)cs2)c(O)c2ccccc21 | 36.7 µM (inactive) | 79.8 µM (inactive) | 24.3 µM (inactive) | 75.2 µM (inactive) | > 100 µM (inactive) | 86.9 µM (inactive) | 23.8 µM (inactive) | 70 µM (inactive) | > 100 µM (inactive) | > 100 µM (inactive) | 52.8 µM (inactive) | > 100 µM (inactive) | > 100 µM (inactive) | > 100 µM (inactive) | 22.2 µM (inactive) | > 100 µM (inactive) | > 100 µM (inactive) | 25.1 µM (inactive) | > 100 µM (inactive) | > 100 µM (inactive)
C=CC/C(C(=O)OC)=C(/C(=O)OC)N(CCC)CCC | > 100 µM (inactive) | > 100 µM (inactive) | 86.9 µM (inactive) | > 100 µM (inactive) | 99.5 µM (inactive) | 23 µM (inactive) | > 100 µM (inactive) | > 100 µM (inactive) | > 100 µM (inactive) | > 100 µM (inactive) | > 100 µM (inactive) | > 100 µM (inactive) | > 100 µM (inactive) | > 100 µM (inactive) | > 100 µM (inactive) | > 100 µM (inactive) | > 100 µM (inactive) | > 100 µM (inactive) | > 100 µM (inactive) | 94.8 µM (inactive)
c1ccc2c(c1)CCN1CCc3c([nH]c4ccccc34)C21 (stereo not given) | 38.3 µM (inactive) | 37.1 µM (inactive) | 31.3 µM (inactive) | 27.3 µM (inactive) | 21.4 µM (inactive) | 13.7 µM (inactive) | 53.2 µM (inactive) | 35.3 µM (inactive) | 25.1 µM (inactive) | 18.1 µM (inactive) | 41.7 µM (inactive) | 38.8 µM (inactive) | 22.4 µM (inactive) | 31.8 µM (inactive) | 21.5 µM (inactive) | 20 µM (inactive) | 49 µM (inactive) | 42 µM (inactive) | 24.4 µM (inactive) | 28.6 µM (inactive)
